# Measurements published in patent US20110230430A1, “SAPONIN EXTRACT FROM SAPONARIA SPP. AND USES THEREOF” (NATIONAL RESEARCH COUNCIL OF CANADA, priority 2008, published 2011).
# Tests used:
# Format in all cases: cell-based, human
# MCF-7 cells = experiment: Dual Sensor: MitoCasp Assay in MCF-7 breast cancer cells; settings: 5 and 10 μM, 24 hours
# From the text: Techniques to assay enzymatic and signaling processes involved in apoptosis have been developed as standard protocols. One example of an early step in apoptosis, is the release of cytochrome C from mitochondria and the activation of caspase-3. Induction of the caspases (a series of cytosolic proteases) is one of the most consistently observed features of apoptosis. Caspases are a family of proteolytic enzymes that transmit the apoptotic signal using a proteolytic cascade. […] Caspases 3 and 7 are effector caspases, central to the caspase cascade pathways. In particular, caspase-3 plays a central role in the process. […] Collapse of the mitochondrial membrane potential during apoptosis prevents the dye from accumulating in the mitochondria resulting in a decrease in fluorescent intensity that can be detected with flow cytometry. […] In this assay, caspase 3/7 activity is detected using a cell permeable carboxyfluorescein labeled caspase inhibitor, which binds covalently to active caspases 3 and 7. Cells that contain bound inhibitor are detected by an increase in fluorescence when samples are analyzed by flow cytometry. […]
# MCF-7 cells were treated with 5.0 μM and 10 μM of saponins PC1526, PC1464 and PC1422 for 24 hours and assessed using Dual Sensor: MitoCasp™ Assay.
# PC-3 cells = experiment: Dual Sensor: MitoCasp Assay in PC-3 prostate cancer cells
# From the text: Techniques to assay enzymatic and signaling processes involved in apoptosis have been developed as standard protocols. One example of an early step in apoptosis, is the release of cytochrome C from mitochondria and the activation of caspase-3. Induction of the caspases (a series of cytosolic proteases) is one of the most consistently observed features of apoptosis. Caspases are a family of proteolytic enzymes that transmit the apoptotic signal using a proteolytic cascade. […] Caspases 3 and 7 are effector caspases, central to the caspase cascade pathways. In particular, caspase-3 plays a central role in the process. When caspases are activated, they cleave target proteins; one of the most important of these is poly-(ADP-ribose) polymerase (PARP), which is a protein located in the nucleus. Therefore, assays detecting release of cytochrome C, detecting caspase-3 activity and detecting PARP degradation are effective determinants of apoptosis. The loss of mitochondrial membrane potential is known to occur during apoptosis. To analyze mitochondrial membrane potential, a cationic dye may be used which accumulates in the mitochondria of healthy cells. Collapse of the mitochondrial membrane potential during apoptosis prevents the dye from accumulating in the mitochondria resulting in a decrease in fluorescent intensity that can be detected with flow cytometry. Dual Sensor: MitoCasp™ (Cell Technology) used herein in the Examples is an assay that measures caspase 3/7 activity and cells with decreased mitochondrial membrane potential. In this assay, caspase 3/7 activity is detected using a cell permeable carboxyfluorescein labeled caspase inhibitor, which binds covalently to active caspases 3 and 7. Cells that contain bound inhibitor are detected by an increase in fluorescence when samples are analyzed by flow cytometry.
# PC-3 cells (ATCC #CRL-1435) were derived from a prostate adenocarcinoma (Kaighn et al., 1979). They were maintained in RPMI 1640 medium (Gibco) supplemented with 10% fetal bovine serum (Cansera), 100 U/mL penicillin, and 100 μg/mL streptomycin and 0.25 μg/mL amphotericin B. Cultures were maintained in medium at 37° C. with 5% CO2 and 100% relative humidity.
# To harvest adherent cells, the existing medium was removed and cells were dissociated with 0.25% (w/v) trypsin-EDTA·4Na in Hank's Balanced Salt Solution (Gibco). To block the proteolytic action of the trypsin, the cells were resuspended in an excess of media containing fetal bovine serum. Cells were transferred to a 15 mL conical centrifuge tube and pelleted by centrifugation at 500×g for 5 min. Cell pellets were resuspended in media, and an aliquot of the cells were seeded into a new flask.
# PC-3 cells were seeded in tissue culture flasks with regular growth medium and maintained under normal conditions. […] Following incubation under normal growth conditions for the specified time, cells were washed once with cold phosphate-buffered saline (PBS) (137 mM NaCl, 2.7 mM KCl, 4.3 mM Na2HPO4.7H2O, 1.4 mM KH2PO4) and harvested as previously described. Assays were carried out according to instructions given in kits. All Flow Cytometry was performed using a Coulter Epics XL (Beckman).
# Following centrifugation at 500×g for 5 min, cell pellets were resuspended in PBS at 3.3×10^6 cells/mL. 300 μL cell suspension was mixed with 10 μL each of 30X Mitochondria Membrane Potential Dye and 30X Caspase 3/7 detection reagent. Following incubation for 60 min under normal growth conditions, cells were washed twice with 1× wash buffer and resuspended in 0.5 mL 1× wash buffer. Samples were analyzed by flow cytometry measuring the fluorescence emissions from 515 nm to 530 nm for caspase detection, and 574 nm to 600 nm for mitochondrial membrane potential detection.
# [1] = test system: PC-3 (prostate cancer) cells; experiment: Hoechst 33342 staining of PC-3 cells; settings: 7 μM PC1448, 24 hours
# From the text: Apoptosis can also be measured by Hoechst 33342 Staining. Cells undergoing apoptosis show several characteristic morphological changes. These changes include cell shrinkage and rounding, and the formation of cytoplasmic blebs on the cell surface. Nuclear material condenses along the edge of the nucleus followed by complete condensation and nuclear fragmentation (Hacker, G., 2000). Apoptotic cells eventually break up into membrane bound vesicles, which are known as apoptotic bodies. Hoechst 33342 is a fluorescent DNA-binding dye that allows visualization of chromatin distribution within a cell. Apoptotic nuclei have highly condensed chromatin, often in crescent shapes around the periphery of the nucleus.
# A further indication of apoptotic activity, in addition to the assays described above, can be derived from observations of changes in cell architecture evident after induction of apoptosis. Hoechst 33342 is a fluorescent DNA-binding dye that allows visualization of chromatin distribution within a cell.
# Cells undergoing apoptosis show several characteristic morphological changes. These changes include cell shrinkage and rounding, and the formation of cytoplasmic blebs on the cell surface. Nuclear material condenses along the edge of the nucleus followed by complete condensation and nuclear fragmentation (Hacker, G., 2000). […]
substance,measurement,setting,value
Segetoside I [PC1464],"Induction of apoptosis (in words, FIG. 16)",MCF-7 cells,do not induce apoptosis
same,Cells with caspase 3/7 activity,"PC-3 cells; 1.25 μM PC1464, 36 hr",9.6%
same,Cells with decreased mitochondrial membrane potential,"PC-3 cells; 1.25 μM PC1464, 36 hr",1.8%
same,Cells with caspase 3/7 activity,"PC-3 cells; 1.75 μM PC1464, 26 hr",8.5%
same,Cells with decreased mitochondrial membrane potential,"PC-3 cells; 1.75 μM PC1464, 26 hr",3.2%
same,Cells with caspase 3/7 activity,"PC-3 cells; 2.5 μM PC1464, 36 hr",15.1%
same,Cells with decreased mitochondrial membrane potential,"PC-3 cells; 2.5 μM PC1464, 36 hr",3.4%
same,Cells with caspase 3/7 activity,"PC-3 cells; 3.50 μM PC1464, 26 hr",40.4%
same,Cells with decreased mitochondrial membrane potential,"PC-3 cells; 3.50 μM PC1464, 26 hr",14.8%
same,Cells with caspase 3/7 activity,"PC-3 cells; 5.0 μM PC1464, 36 hr",57.1%
same,Cells with decreased mitochondrial membrane potential,"PC-3 cells; 5.0 μM PC1464, 36 hr",28.7%
same,Cells with caspase 3/7 activity,"PC-3 cells; 5.25 μM PC1464, 26 hr",49.5%
same,Cells with decreased mitochondrial membrane potential,"PC-3 cells; 5.25 μM PC1464, 26 hr",20.3%
same,Cells with caspase 3/7 activity,"PC-3 cells; 7 μM PC1464, 10 hr",12.2%
same,Cells with decreased mitochondrial membrane potential,"PC-3 cells; 7 μM PC1464, 10 hr",5.1%
same,Cells with caspase 3/7 activity,"PC-3 cells; 7 μM PC1464, 20 hr",40.1%
same,Cells with decreased mitochondrial membrane potential,"PC-3 cells; 7 μM PC1464, 20 hr",21.4%
same,Cells with caspase 3/7 activity,"PC-3 cells; 7.00 μM PC1464, 26 hr",59.4%
same,Cells with decreased mitochondrial membrane potential,"PC-3 cells; 7.00 μM PC1464, 26 hr",24.1%
same,Increase in cells with decreased mitochondrial membrane potential,"PC-3 cells; 7 μM PC1464, 30 hours",more than ten fold
same,Increase in number of cells with caspase 3/7 activity,"PC-3 cells; 7 μM PC1464, 30 hours",six fold
same,Cells with caspase 3/7 activity,"PC-3 cells; 7 μM PC1464, 30 hr",54.6%
same,Cells with decreased mitochondrial membrane potential,"PC-3 cells; 7 μM PC1464, 30 hr",51.2%
same,Cells with caspase 3/7 activity,"PC-3 cells; 10.0 μM PC1464, 36 hr",59.6%
same,Cells with decreased mitochondrial membrane potential,"PC-3 cells; 10.0 μM PC1464, 36 hr",43.2%
same,Concentration of greatest effect on apoptosis,PC-3 cells; 36 hours,above 5 μM
same,Induction of apoptosis at concentrations as low as,PC-3 cells; 36 hours,2.5 µM
same,Concentrations with significant effect on induction of apoptosis,"PC-3 cells; PC1464 1.75-7 μM, 26 hour",≥ 3.5 µM
Segetoside H [PC1448],Cells with caspase 3/7 activity,"PC-3 cells; 2.5 μM PC1448, 37 hr",5.6%
same,Cells with decreased mitochondrial membrane potential,"PC-3 cells; 2.5 μM PC1448, 37 hr",6.0%
same,Cells with caspase 3/7 activity,"PC-3 cells; 5.0 μM PC1448, 37 hr",35.1%
same,Cells with decreased mitochondrial membrane potential,"PC-3 cells; 5.0 μM PC1448, 37 hr",9.9%
same,Cells with caspase 3/7 activity,"PC-3 cells; 7 μM PC1448, 26 hr",77.8%
same,Cells with decreased mitochondrial membrane potential,"PC-3 cells; 7 μM PC1448, 26 hr",24.8%
same,Cells with caspase 3/7 activity,"PC-3 cells; 10 μM PC1448, 26 hr",86.2%
same,Cells with decreased mitochondrial membrane potential,"PC-3 cells; 10 μM PC1448, 26 hr",30.8%
same,Cells with caspase 3/7 activity,"PC-3 cells; 10.0 μM PC1448, 37 hr",76.8%
same,Cells with decreased mitochondrial membrane potential,"PC-3 cells; 10.0 μM PC1448, 37 hr",26.7%
same,Cells with caspase 3/7 activity,"PC-3 cells; 14 μM PC1448, 05 hr",13.0%
same,Cells with decreased mitochondrial membrane potential,"PC-3 cells; 14 μM PC1448, 05 hr",38.0%
same,Cells with caspase 3/7 activity,"PC-3 cells; 14 μM PC1448, 10 hr",29.2%
same,Cells with decreased mitochondrial membrane potential,"PC-3 cells; 14 μM PC1448, 10 hr",72.5%
same,Cells with caspase 3/7 activity,"PC-3 cells; 14 μM PC1448, 15 hr",42.9%
same,Cells with decreased mitochondrial membrane potential,"PC-3 cells; 14 μM PC1448, 15 hr",89.4%
same,Cells with caspase 3/7 activity,"PC-3 cells; 14 μM PC1448, 20 hr",57.2%
same,Cells with decreased mitochondrial membrane potential,"PC-3 cells; 14 μM PC1448, 20 hr",94.1%
same,Increase in cells with a decreased mitochondrial membrane potential vs untreated,"PC-3 cells; 14 μM PC1448, 20 hr (4.5% to 94.1%)",~20 fold
same,Cells with caspase 3/7 activity,"PC-3 cells; 14 μM PC1448, 26 hr",84.0%
same,Cells with decreased mitochondrial membrane potential,"PC-3 cells; 14 μM PC1448, 26 hr",52.0%
same,Increase in cells with measurable caspase 3/7 activity vs untreated,"PC-3 cells; 14 μM PC1448, over the 20 hr exposure period",approximately a doubling
same,Cells with caspase 3/7 activity,"PC-3 cells; 15.0 μM PC1448, 37 hr",72.9%
same,Cells with decreased mitochondrial membrane potential,"PC-3 cells; 15.0 μM PC1448, 37 hr",32.3%
same,Cells with caspase 3/7 activity,"PC-3 cells; 17 μM PC1448, 26 hr",77.7%
same,Cells with decreased mitochondrial membrane potential,"PC-3 cells; 17 μM PC1448, 26 hr",41.9%
same,Concentration of greatest effect on apoptosis,PC-3 cells; 37 hours,above 10 μM
same,Induction of apoptosis at concentrations as low as,PC-3 cells; 37 hours,5.0 µM
same,Concentration with the greatest change in cells with decreased mitochondrial membrane potential,"PC-3 cells; PC1448 7-17 μM, 26 hr",14 µM
same,Concentration with the largest increase in caspase 3/7 activity,"PC-3 cells; PC1448 7-17 μM, 26 hr",10 µM
same,Increase in caspase 3/7 activity vs untreated,"PC-3 cells; PC1448 7-17 μM, 26 hr, all treated cells",9 fold
same,"Nuclear morphology after Hoechst 33342 staining (in words, FIG. 4)",[1],nuclear changes characteristic of apoptotic cells
